According to US11433028B2, “Compositions for treating viral infections and methods for same” (Tiger Development, LLC, priority 2018, dated 2022):

How the values were obtained:
SARS-CoV-2 [1] = type: in vivo, mice
SARS-CoV-2 [2] = test system: SARS-CoV-2; design: species or system mice; conditions: mouse, in vivo

polylysine
increase in total survival across the treatment period (SARS-CoV-2 [1]; mouse, in vivo): 5 fold
mice surviving the treatment and exposure period (SARS-CoV-2 [1]; mouse, in vivo): six of ten
body weight after the treatment and exposure period (recovery) (SARS-CoV-2 [1]; surviving mice, p<0.05, FIG. 3A/3B): increasing weight to near pre-treatment levels
improved survival rate (SARS-CoV-2 [2]): 50%
onset of morbidity (SARS-CoV-2 [2]): delayed onset of morbidity
